Values joined by “and” are separate entries in the source; they are usually repeats but may differ in a detail not shown here. Equal entries are not always repeated. One block for each compound: values may come before it. Active and inactive are the calls of the source.
Assays:
[1] = target: FAD-linked sulfhydryl oxidase ALR (Homo sapiens, UniProt P55789); assay: ALR-catalysed DTT oxidation blockers – biochemical, H2O2 detection, luminescence, cherry-pick, dose response (AID 493248)
P388/ADR = assay: cells; format: functional; conditions: Mus musculus
SN12K1 = assay: cells; format: functional; conditions: Homo sapiens
P388 = assay: cells; format: functional; conditions: Mus musculus
[2] = target: T1, Corticotropin-releasing factor receptor 2/Corticotropin-releasing factor-binding protein (Homo sapiens, UniProt P24387+Q13324); assay: Dose Response confirmation of uHTS hits for small molecule antagonists of the CRF-binding protein and CRF-R2 receptor complex.; format: functional; conditions: read-out: IC50_Mean
T1 sequence (Q13324 whole entry): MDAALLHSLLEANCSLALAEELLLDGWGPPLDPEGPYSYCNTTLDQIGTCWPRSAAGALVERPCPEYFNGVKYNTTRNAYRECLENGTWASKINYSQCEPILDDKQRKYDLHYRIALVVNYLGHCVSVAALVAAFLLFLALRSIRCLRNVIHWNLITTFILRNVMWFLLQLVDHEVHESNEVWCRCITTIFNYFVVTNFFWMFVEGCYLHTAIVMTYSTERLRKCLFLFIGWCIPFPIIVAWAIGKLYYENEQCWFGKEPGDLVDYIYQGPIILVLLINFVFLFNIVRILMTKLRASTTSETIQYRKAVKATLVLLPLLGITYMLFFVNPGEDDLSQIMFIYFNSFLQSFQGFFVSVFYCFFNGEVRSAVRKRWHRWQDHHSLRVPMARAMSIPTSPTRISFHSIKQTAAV
T1 sequence (P24387 whole entry): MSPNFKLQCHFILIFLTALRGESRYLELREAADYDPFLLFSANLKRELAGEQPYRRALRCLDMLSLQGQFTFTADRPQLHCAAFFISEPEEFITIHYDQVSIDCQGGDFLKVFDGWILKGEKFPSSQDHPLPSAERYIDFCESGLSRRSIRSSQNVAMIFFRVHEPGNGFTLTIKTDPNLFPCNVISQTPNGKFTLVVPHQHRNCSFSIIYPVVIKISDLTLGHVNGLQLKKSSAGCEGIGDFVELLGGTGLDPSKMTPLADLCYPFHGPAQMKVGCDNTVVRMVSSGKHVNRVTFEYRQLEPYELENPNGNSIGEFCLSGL

[3] = target: T1, Corticotropin-releasing factor receptor 2/Corticotropin-releasing factor-binding protein; assay: activators of CRF receptor 2 with binding protein – uHTS hits, confirmation (AID 602473); format: functional; conditions: read-out: EC50_Mean
Cytochrome P450 3A4 = Cytochrome P450 3A4 (Homo sapiens, UniProt P08684); conditions: Potency;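 further: confirmatory qHTS run detecting inhibitors and substrates of CYP3A4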
[4] = target: Induced myeloid leukemia cell differentiation protein Mcl-1 (Homo sapiens, UniProt Q07820); format: functional
[5] = Trypanosoma cruzi growth suppression in host cells – NIH3T3 host cells, beta-gal luminescence, confirmation (AID 2044); format: functional, cell-based;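 further: intracellular parasites grown in NIH/3T3 mouse fibroblasts as host cells; luminescent beta-galactosidase reporter signal from transgenic T. cruzi replicating inside host cells; inhibitors lower the luminescence signal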
[6] = NIH3T3 cell viability loss – ATP luminescence, mouse fibroblasts, counter-screen, dose response (AID 2010); format: functional, cell-based;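 further: cells exposed to compound for about 90 hours before reading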
Fatty acid synthase = Fatty acid synthase (Homo sapiens, UniProt P49327); assay: inhibition of human FAS-TE enzyme activity – biochemical, kinetic fluorescence intensity, dose response (AID 624326); format: functional;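 further: rate of fluorescence rise from hydrolysis of a fluorogenic O-methyl fluorescein ester substrate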
Leucine aminopeptidase = target: T2, Leucine aminopeptidase (Plasmodium falciparum 3D7, UniProt Q8IL11); assay: P. falciparum M17LAP inhibitors, primary screen, biochemical, fluorogenic H-Leu-NHMec substrate, 1536-well (AID 1619); format: functional
T2 sequence (Q8IL11 whole entry): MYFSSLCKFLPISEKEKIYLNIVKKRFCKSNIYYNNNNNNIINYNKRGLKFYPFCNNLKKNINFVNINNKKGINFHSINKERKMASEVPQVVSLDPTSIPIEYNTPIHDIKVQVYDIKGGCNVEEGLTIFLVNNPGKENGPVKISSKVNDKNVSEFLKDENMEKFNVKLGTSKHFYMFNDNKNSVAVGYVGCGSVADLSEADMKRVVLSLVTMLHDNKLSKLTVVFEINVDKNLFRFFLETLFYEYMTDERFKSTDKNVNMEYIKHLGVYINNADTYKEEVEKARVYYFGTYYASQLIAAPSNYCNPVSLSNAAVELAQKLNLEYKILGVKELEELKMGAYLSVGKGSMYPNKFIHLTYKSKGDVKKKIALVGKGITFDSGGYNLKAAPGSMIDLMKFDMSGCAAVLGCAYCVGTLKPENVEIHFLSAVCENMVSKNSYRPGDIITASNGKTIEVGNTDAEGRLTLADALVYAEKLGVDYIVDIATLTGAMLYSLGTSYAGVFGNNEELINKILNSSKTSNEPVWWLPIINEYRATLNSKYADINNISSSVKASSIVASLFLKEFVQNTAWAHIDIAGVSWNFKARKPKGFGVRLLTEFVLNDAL

Cytochrome P450 3A4, sequence (P08684 whole entry): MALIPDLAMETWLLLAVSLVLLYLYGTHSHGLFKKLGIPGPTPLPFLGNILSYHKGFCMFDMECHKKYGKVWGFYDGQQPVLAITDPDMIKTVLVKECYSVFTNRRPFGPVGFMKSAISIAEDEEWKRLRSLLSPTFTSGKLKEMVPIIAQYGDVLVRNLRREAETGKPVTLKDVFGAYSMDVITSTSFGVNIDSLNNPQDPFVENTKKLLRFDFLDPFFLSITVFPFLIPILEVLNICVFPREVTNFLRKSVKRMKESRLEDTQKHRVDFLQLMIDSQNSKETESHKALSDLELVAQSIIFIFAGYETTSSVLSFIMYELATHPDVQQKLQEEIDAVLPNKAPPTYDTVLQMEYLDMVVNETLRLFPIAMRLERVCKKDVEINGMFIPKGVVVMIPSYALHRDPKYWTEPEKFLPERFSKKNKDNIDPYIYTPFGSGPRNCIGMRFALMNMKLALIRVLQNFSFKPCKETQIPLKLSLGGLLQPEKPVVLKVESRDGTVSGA
FAD-linked sulfhydryl oxidase ALR, sequence (P55789 whole entry): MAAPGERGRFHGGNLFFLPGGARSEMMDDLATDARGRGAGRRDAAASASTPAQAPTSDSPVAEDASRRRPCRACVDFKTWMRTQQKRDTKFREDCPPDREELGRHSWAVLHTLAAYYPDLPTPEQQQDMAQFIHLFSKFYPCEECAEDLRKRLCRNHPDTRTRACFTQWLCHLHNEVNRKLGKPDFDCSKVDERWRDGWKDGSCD
Induced myeloid leukemia cell differentiation protein Mcl-1, sequence (Q07820 whole entry): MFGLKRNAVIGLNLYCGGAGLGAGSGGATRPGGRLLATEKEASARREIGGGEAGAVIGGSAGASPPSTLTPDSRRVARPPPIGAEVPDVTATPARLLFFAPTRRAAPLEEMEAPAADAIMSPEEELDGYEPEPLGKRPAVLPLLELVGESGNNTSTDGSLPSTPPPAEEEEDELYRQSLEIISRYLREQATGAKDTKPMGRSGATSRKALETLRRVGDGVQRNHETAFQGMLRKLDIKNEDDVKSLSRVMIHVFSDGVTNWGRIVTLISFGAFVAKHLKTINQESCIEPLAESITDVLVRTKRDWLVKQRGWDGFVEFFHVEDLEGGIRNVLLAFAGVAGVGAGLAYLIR
Fatty acid synthase, sequence (P49327 whole entry): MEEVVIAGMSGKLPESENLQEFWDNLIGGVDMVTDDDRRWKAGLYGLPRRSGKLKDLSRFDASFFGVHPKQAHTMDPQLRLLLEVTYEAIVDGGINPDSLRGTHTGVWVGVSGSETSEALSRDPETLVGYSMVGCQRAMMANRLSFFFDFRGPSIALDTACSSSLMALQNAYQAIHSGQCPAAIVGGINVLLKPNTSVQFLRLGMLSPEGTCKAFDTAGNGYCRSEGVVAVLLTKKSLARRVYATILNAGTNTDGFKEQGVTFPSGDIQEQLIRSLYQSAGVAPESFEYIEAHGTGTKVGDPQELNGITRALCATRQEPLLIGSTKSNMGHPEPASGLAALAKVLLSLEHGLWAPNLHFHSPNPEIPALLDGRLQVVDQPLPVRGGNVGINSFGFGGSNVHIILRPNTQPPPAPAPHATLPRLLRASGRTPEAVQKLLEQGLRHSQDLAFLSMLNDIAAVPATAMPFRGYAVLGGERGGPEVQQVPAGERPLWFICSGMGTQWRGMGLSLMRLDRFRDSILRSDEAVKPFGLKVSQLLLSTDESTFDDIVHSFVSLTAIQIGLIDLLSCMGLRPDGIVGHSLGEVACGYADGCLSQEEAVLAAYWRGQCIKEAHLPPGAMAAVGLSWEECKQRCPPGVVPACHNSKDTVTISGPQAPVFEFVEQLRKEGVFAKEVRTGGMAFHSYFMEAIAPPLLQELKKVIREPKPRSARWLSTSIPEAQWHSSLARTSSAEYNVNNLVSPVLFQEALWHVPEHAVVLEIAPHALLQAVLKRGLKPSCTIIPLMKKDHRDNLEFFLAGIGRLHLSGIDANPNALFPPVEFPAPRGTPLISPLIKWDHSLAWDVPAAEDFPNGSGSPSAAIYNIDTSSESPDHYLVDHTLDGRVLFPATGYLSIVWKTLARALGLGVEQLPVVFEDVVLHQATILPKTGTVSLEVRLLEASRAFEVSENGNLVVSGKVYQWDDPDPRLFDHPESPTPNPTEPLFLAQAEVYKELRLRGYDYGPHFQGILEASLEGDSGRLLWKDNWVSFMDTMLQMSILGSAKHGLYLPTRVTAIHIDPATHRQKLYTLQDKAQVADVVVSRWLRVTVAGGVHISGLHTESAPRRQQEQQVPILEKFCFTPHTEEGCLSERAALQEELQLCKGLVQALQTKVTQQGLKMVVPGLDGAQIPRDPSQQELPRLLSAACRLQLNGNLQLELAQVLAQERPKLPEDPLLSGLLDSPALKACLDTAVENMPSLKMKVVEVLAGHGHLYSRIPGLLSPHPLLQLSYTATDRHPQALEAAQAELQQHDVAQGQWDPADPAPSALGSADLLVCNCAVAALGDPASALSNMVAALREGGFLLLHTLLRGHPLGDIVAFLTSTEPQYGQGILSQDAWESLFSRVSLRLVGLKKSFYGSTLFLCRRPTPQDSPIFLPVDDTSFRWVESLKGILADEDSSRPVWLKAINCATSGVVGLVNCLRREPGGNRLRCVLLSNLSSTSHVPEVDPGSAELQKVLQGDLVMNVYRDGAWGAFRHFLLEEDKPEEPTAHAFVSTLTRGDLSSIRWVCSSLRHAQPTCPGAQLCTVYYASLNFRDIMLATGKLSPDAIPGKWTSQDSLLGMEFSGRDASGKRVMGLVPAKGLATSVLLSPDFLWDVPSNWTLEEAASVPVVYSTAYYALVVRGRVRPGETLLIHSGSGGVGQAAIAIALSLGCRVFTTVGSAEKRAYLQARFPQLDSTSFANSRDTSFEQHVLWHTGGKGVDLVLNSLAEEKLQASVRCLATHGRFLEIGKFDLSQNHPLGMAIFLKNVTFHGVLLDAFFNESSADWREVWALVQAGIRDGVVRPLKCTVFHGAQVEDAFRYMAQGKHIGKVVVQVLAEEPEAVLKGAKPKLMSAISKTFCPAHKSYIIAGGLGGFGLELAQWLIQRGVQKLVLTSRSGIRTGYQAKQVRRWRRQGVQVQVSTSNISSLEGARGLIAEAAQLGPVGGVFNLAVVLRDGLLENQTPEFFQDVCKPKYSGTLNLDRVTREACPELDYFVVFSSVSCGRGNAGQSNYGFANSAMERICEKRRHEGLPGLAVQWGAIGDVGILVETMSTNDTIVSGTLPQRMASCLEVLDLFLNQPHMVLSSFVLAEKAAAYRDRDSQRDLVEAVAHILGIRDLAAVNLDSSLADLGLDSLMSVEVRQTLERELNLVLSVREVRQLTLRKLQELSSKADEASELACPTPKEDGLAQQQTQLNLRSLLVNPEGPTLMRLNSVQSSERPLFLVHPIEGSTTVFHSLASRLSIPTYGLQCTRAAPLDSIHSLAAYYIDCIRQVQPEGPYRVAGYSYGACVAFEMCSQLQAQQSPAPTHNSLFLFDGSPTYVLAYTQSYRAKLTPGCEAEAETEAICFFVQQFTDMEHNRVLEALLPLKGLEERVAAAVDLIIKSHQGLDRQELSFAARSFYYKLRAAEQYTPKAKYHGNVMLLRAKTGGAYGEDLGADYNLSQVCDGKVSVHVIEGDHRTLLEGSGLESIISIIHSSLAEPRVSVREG

AC50 [1]: 0.137 µM (active)
Structure (SMILES): CCCNC(=O)c1cc2c3ccccc3n(C)c2s1

Structure (SMILES): CNC(=O)OCc1nc(SC)n(C)c1CO
GI50 (P388/ADR): > 100 µM (inactive) | GI50 (SN12K1): > 100 µM (inactive) | GI50 (P388): > 100 µM (inactive)

AC50 [1]: 4.74 µM (active)
Structure (SMILES): C=CCn1c(SCc2ccc(C(=O)O)cc2)nc2sc(C)c(C)c2c1=O

IC50 [2]: > 47.1 µM (inactive) | EC50 [3]: > 53 µM (inactive)
Structure (SMILES): Cn1ccnc1SCc1cn2ccccc2n1

Structure (SMILES): Cc1c2cc[n+](C)cc2c(COC2OC(CO)C(O)C2O)c2c3ccccc3n(C)c12 (stereo unspecified)
GI50 (P388/ADR): > 100 µM (inactive) | GI50 (SN12K1): 58.2 µM (inactive) | GI50 (P388): 2.69 µM (inactive)

AC50 (Cytochrome P450 3A4): 31.6 µM (inconclusive)
Structure (SMILES): CC(=O)N1CC=CC1(C)C(=O)NCC1CC1 (stereo unspecified)

Structure (SMILES): OCC1OC(C#Cc2ccccc2)C=CC1O (stereo unspecified)
AC50 (Cytochrome P450 3A4): 3.16 µM (inconclusive) and 6.31 µM (inconclusive) (2×)

IC50 [4]: 2.13 µM (not active)
Structure (SMILES): Cc1ccc(C(=O)COC(=O)CNC(=O)c2ccc(N3C(=O)c4ccccc4C3=O)cc2)cc1C

Structure (SMILES): Fc1ccc(OCCCCCn2ccnc2)cc1
EC50 [5]: 1.67 µM (active) | EC50 [6]: > 60 µM (not active) | IC50 [2]: > 47.1 µM (inactive) | EC50 [3]: > 53 µM (inactive)

Structure (SMILES): Cc1c2cc[n+]([O-])cc2c(C)c2c1[nH]c1ccccc12
GI50 (P388/ADR): 4.45 µM (inactive) | GI50 (SN12K1): 3.38 µM (inactive) | GI50 (P388): 0.753 µM (active)

IC50 (Fatty acid synthase): 3.34 µM (active)
Structure (SMILES): CN(C)S(=O)(=O)c1ccc(-c2csc(-c3cccnc3)n2)cc1

IC50 (Leucine aminopeptidase): 29 µM (active)
Structure (SMILES): O=C(O)C1CC=CCC1C(=O)Nc1ccccc1 (stereo unspecified)

IC50 (Leucine aminopeptidase): 11.3 µM (active)
Structure (SMILES): CCc1nnc(NS(=O)(=O)c2ccc(/N=C/c3c(C)[nH]n(-c4cccc(Cl)c4)c3=O)cc2)s1

IC50 [4]: 8.3 µM (active)
Structure (SMILES): O=C(/C=C/c1ccccc1)c1ccc(NC2=NCCCS2)cc1

AC50 [1]: 9.56 µM (active)
Structure (SMILES): Cc1ccc(N2C(=O)CC(NNC(=O)c3cccc(S(=O)(=O)N4CCCC4)c3)C2=O)cc1 (stereo unspecified)

IC50 (Leucine aminopeptidase): 21.1 µM (active)
Structure (SMILES): O=C(CSc1nnc(O)nc1O)N/N=C/c1ccccc1
